How the values were obtained:
[1] = system: SH-SY5Y human neuroblastoma cells expressing EGFP-alphasynuclein-A53T; assay: Mutated α-synuclein aggregation in transfected SH-SY5Y cells; assay type: cell-based; conditions: 5 μM, 24 h
Experimental: Mutated α-synuclein protein aggregation are indicated by white arrows, GFP α-synuclein protein (green) and β-tubulin (red). The images were acquired using the Operetta CLS automated confocal microscope, using the 40× water immersion objective.
SH-SY5Y human neuroblastoma cells were maintained in Dulbecco's modified Eagle's medium (DMEM) supplemented with 10% fetal bovine serum (FBS), 2 mM L-glutamine and 100 U/mL penicillin-0.1 mg/mL streptomycin at 37° C. and 5% CO2.
To study the effect of compounds on mutated huntingtin and synuclein that accumulates in cells, SH-SY5Y were transfected with a constitutively active mutated-huntingtin expression vector pEGFP-Q74 (encoding EGFP protein fused to a fragment of huntingtin corresponding to the exon 1 with 74 CAG repeats; c.54GCA[74]; Addgene; #40262) and EGFP-alphasynuclein-A53T (Addgene; #40823).
For transfection assays, cells were seeded (30×10^3 cells/cm^2) on 96-multiwell plates (coated with poliornitine-fibronectine). Cells were transfected with 0.3 μg pEGFP-Q74 plasmid using LTX with Plus Reagent according to the manufacturer's instructions (Thermo Fisher). After 24-h, the medium was changed with a new one, and cells were treated with increasing amounts of GKK1032C and CL0670 (0.1 μM, 1 μM and 5 μM) or DMSO (control cells) for 24 h at 37° C. […]

C57BL6/J male mice [2] = assay: Stroke size after Middle Cerebral Artery occlusion (tetrazolium chloride); assay type: in vivo; conditions: for protection of the stroke volume caused by the Middle Cerebral Artery occlusion: GKK1032C and CL0670 10 mg/kg intravenously (FIG. 19); for percentage averaged stroke volume: mice treated with GKK1032C and CL0670 10 mg/kg intravenously after MCA occlusion, untreated ischemia ˜48%
Excerpt: FIG. 19 is the graphical representation of the volume of the cerebral stroke of mice submitted to Middle Cerebral Artery occlusion effect (empty bar) and of mice submitted to Middle Cerebral Artery occlusion and administration of Compound I and CL0670 (solid bar). *: p-value<0.05 vs. ischemia (student's test).
(§1) Middle Cerebral Artery occlusion involves temporarily or permanently restricting MCA blood flow to the cortex and striatum. The cerebral ischemic model of stroke is commonly used to assess ischemic injury in the brain. Occlusion of the middle cerebral artery (MCA) leads to a reduction of cerebral blood flow in both the striatum and the cortex. It is a highly reproducible model that results in brain damages similar to those occurring in human stroke.
(§2) Compounds GKK1032C and CL0670 were administered intravenously at a dose of 10 mg/kg. 11-week old C57BL6/J male mice were divided into 3 groups of 7 mice each: mice submitted to Middle Cerebral Artery occlusion (ischemia), mice submitted to Middle Cerebral Artery occlusion and administration of GKK1032C and CL0670.
(§3) All mice were firstly trained in the rotarod for 3 consecutive days. After this period, the mice were put to sleep with sevoflurane and submitted to surgery. Occlusion was performed by maintain the surgical filament occluding the middle cerebral artery for 30 minutes. Once removed, GKK1032C and CL0670 were injected at the jugular vein. 24 hours after reanimation, the animals were submitted to the rotarod test.
To compare the neuroprotective effect caused by GKK1032C and CL0670 to the motor coordination of mice and the cerebral damage caused by the chirurgical procedure, the animals were sacrificed, and the stroke size measured by visual inspection after treatment with tetrazolium chloride. […] The data confirms that GKK1032C and CL0670 are excellent neuroprotector agents against stroke.

C57BL6/J male mice [3] = assay: Open field test in 3-nitropropionic acid chemical model of Huntington's disease; assay type: in vivo; conditions: mice injected with GKK1032C and CL0670, once-daily 150 mg/kg (FIG. 16)
Experimental: GKK1032C and CL0670 injections were performed at day 1, day 2 and day 3. 3-nitropropionic acid injections were performed at days 1, 1.5, 2, 2.5, 3 and 3.5. The shown data points were obtained 4 hours after the injections. p-value<0.05 vs. control (student's test).
A chemical model of Huntington's disease was conducted to evaluate the capacity of compound I and CL0670 in protecting neurons. This is achieved by intraperitoneal injection of 3-nitropropionic acid which induces neuronal oxidative stress by inhibiting the succinate dehydrogenase enzyme.
8-weeks old C57BL6/J male mice were divided into 4 groups.
Mice in group I (4 mice) were injected with GKK1032C and CL0670 (once-daily dose of 150 mg/kg for 3 days).
Mice in group II (5 mice) were injected with GKK1032C and CL0670 (once-daily dose of 150 mg/kg for 3 days) and with 3-nitropropionic acid (twice daily dose of 50 mg/kg for 3 days). In the case of group II, 3-nitropropionic acid was injected two hours and twelve hours after injection with GKK1032C and CL0670.
Mice in group III (5 mice) were injected with 3-nitropropionic acid (twice daily dose of 50 mg/kg for 3 days).
Mice in group IV (6 mice) were injected with vehicle only.

C57BL6/J male mice [4] = assay: Rotarod test after Middle Cerebral Artery occlusion (stroke model); assay type: in vivo; conditions: GKK1032C and CL0670 10 mg/kg intravenously (jugular vein) after 30 min occlusion; rotarod 24 hours after reanimation; untreated stroke impairment ˜75%
Excerpt: as §1, §2, §3

[5] = system: cortical primary neurons (from C57BL6/J mice); assay: Caspase-3 activity (neuronal apoptosis) after excitotoxic NMDA stimulus; assay type: cell-based; conditions: 100 μM NMDA 10 min, then 24 h with compound 0.1, 1, 5 μM (FIG. 6)
Experimental: For NMDA receptors activation, neurons at 8 days in vitro were incubated with 100 μM NMDA for 10 minutes. Neurons were then washed and further incubated for 24 hours in culture medium with DMSO only (DMSO empty bar), DMSO and NMDA (DMSO filled bar) and with increasing quantities of GKK1032C, GKK1032, Pyrrocidine B, CL0661, CL0665, CL0667 and CL0670. Concentrations of 0.1 μM, 1 μM, 5 μM. *: pvalue <0.05 vs. DMSO+NMDA (student's test).
Experiments were performed in […] cortical primary neurons, obtained as was previously described (Herrero-Mendez A. et al., Nat. Cell. Biol. 11:747-752, 2009). After 7 or 8 days in B27-MAO culture, neurons (from C57BL6/J mice) were incubated in the presence of N-methyl-D-aspartate (NMDA, a H2O2 production promoter; 100 μM) for 10 minutes, followed by a PBS washing step and submitted to a 24-hour B27 incubation step in the absence (DMSO) or presence of increasing amounts of GKK1032C, GKK1032, Pyrrocidine B, Pyrrocidine A, CL0661, CL0665, CL0667 and CL0670 (0.1 μM, 1 μM and 5 μM). B27-MAO stands for Neurobasal medium, supplemented with B27 supplement in the absence of antioxidants (minus antioxidants, MAO).
Neuronal apoptosis was determined by measuring caspase-3 activity (Veas-Perez de Tudela et al. Sci Rep 5:18180; doi:10.1038/srep18180 (2015).
The data are presented as the mean values±standard deviation of the mean from n=3.

Row | Structure (SMILES) | mutated synuclein and number of aggregates [1] | protection of the stroke volume caused by the Middle Cerebral Artery occlusion (C57BL6/J male mice [2]) | percentage averaged stroke volume (C57BL6/J male mice [2]) | number of line crossings (open field), 3-nitropropionic acid model (C57BL6/J male mice [3]) | time spent in central square of the arena (open field), 3-nitropropionic acid model (C57BL6/J male mice [3]) | recovery of motor coordination (rotarod) of mice with stroke (C57BL6/J male mice [4]) | neuronal apoptosis (caspase-3 activity) after NMDA [5]
1 | C=CC1(C)C=C(C)C2C3C(Oc4ccc(cc4)CC4C(=O)NC(O)C4C(=O)C31)C1C(C)CC(C)CC21C (centres unmarked) [CL0670] | significantly decreased | roughly 18% | 39.5% | increased | increased | ~17% | effective in protecting neuron cells against apoptosis
2 | C=CC1(C)C=C(C)C2C3C(Oc4ccc(cc4)CC4(O)NC(=O)C5(OC45)C(=O)C31)C1C(C)CC(C)CC21C (centres unmarked) [Compound I] | significantly decreased | roughly 18% | 39.5% | increased | increased | ~17% | effective in protecting neuron cells against apoptosis

Reference: patent US20220177484A1, “MACROCYCLES WITH ANTIOXIDANT AND NEUROPROTECTIVE ACTIVITIES” (INSTITUTO BIOMAR, S.A, priority 2019, published 2022)
